Measurements reported in US20130085161A1, “PIPERIDINYL SUBSTITUTED 1,3-DIHYDRO-BENZOIMIDAZOL-2-YLIDENEAMINE DERIVATIVES” (NOVARTIS AG, priority 2010, published 2013).

Target: T1, BaF3-Tel-IGF1-R (Homo sapiens, UniProt P08069)
T1 construct: the kinase domain of IGF-1R (aa 976-1367) linked by a Ser-Arg-linker; expressed in transfected cells; host or cells: BaF3 murine proB-cell lymphoma cells, stably transduced
Experiment: BaF3 cell viability assay (resazurin), 384-well format
Assay type: cell-based
Settings: 384-well plate format; 48 h incubation; resazurin dye reduction; cell proliferation/viability
Description: BaF3-Tel-IGF1-R and BaF3-InsR are BaF3 murine proB-cell lymphoma cell derivatives [the BaF3 cell line (also termed Ba/F3) is available from the German Collection of Microorganisms and Cell Cultures (DSMZ), Braunschweig, Germany] that have been rendered IL-3-independent by stable transduction with kinase-activating fusions between human TEL (aa 1-452) and the kinase domain of IGF-1R (aa 976-1367) linked by a Ser-Arg-linker (Boulay et al, Cancer Res 68, 3743-3751, 2008), and a fusion between human TEL (aa 1-337) and the kinase domain (aa 1015-1382) of the Insulin receptor (Melnick J S et al, Proc Natl Acad Sci USA 103, 3153-3158, 2006), respectively. Cells are cultured in RPMI-1640 (Animed #1-14F01-1) supplemented with 2% L-glutamine (Animed #5-10K50-H) and 10% fetal calf serum (FCS, Animed #2-01F16-I). Wild-type, untransfected BaF3 cells are maintained in above medium plus 10 U/ml IL-3 (mouse Interleukin-3, Roche #1380745 or Invitrogen # PMC0035) and are used to identify non-selective, generally growth-inhibitory compounds. Cells (1.5×10^4 cells per well) are seeded in 190 μl fresh medium into 96-well plates. 10 μl 20× compound solutions are added. As internal control, the kinase inhibitor PKC412 is routinely used. Control cells treated with DMSO (0.1% final concentration) serve as growth reference (set as 100% growth). In addition, a plate blank value is routinely determined in a well containing only […] of medium and no cells. IC50 determinations are performed based on eight 3-fold serial dilutions of the test compound, starting at 10 μM. Following incubation of the cells for 48 h at 37° C. and 5% CO2, the effect of inhibitors on cell viability is assessed by the resazurin sodium salt dye reduction assay (commercially known as AlamarBlue assay) basically as previously described (O'Brien J. et al., Eur. J. Biochem. 267: 5421-5426, 2000). Briefly, 20 μl dye solution is added per well and the plates incubated for 6 h at 37° C. and 5% CO2. Thereafter, fluorescence is measured using a Saphirell 96-well plate reader (TECAN, Männedorf, Switzerland) with the following settings: Excitation 544 nm and Emission 590 nm. For data analysis, the plate blank value is subtracted from all data points. The effect of a particular test compound concentration on cell proliferation and viability is expressed as percentage of the blank-corrected reading obtained for cells treated with vehicle only, which is set as 100%. IC50 values can be determined using XLfit (V4.2), applying standard four parameter logistic model #205 (IDBS, Guilford, UK) or other common curve-fitting software.
To achieve a higher throughput, the cell viability assay can also be performed in a 384-well format. Briefly, 4′500 freshly diluted cells are seeded in 54 μl/well into 384-well plates using a liquid dispenser. 6 μl 10× compound solution is added to the cell plate. As internal control, the kinase inhibitor PKC412 is routinely used. Control cells treated with DMSO (0.1% final concentration) serve as growth reference (set as 100% growth). In addition, a plate blank value is routinely determined in a well containing only 60 μl of medium and no cells. Dose-response effects are determined by 3-fold serial compound dilutions, starting at 10 μM. Following incubation of the cells for 48 h at 37° C. and 5% CO2, the effect of compounds on cell proliferation/viability is assessed by addition of 6 μl resazurin sodium salt dye solution per well. Following incubation for an additional 6 hrs at 37° C. and 5% CO2, fluorescence is measured using an Infiniti M1000 microplate reader (TECAN, Männedorf, Switzerland) with excitation and emission wavelengths set at 544 and 590 nm, respectively. For data analysis, the plate blank value is subtracted from all data points. IC50 values can be determined by four parameter logistic fitting as described above.

T1 sequence (P08069 976-1367): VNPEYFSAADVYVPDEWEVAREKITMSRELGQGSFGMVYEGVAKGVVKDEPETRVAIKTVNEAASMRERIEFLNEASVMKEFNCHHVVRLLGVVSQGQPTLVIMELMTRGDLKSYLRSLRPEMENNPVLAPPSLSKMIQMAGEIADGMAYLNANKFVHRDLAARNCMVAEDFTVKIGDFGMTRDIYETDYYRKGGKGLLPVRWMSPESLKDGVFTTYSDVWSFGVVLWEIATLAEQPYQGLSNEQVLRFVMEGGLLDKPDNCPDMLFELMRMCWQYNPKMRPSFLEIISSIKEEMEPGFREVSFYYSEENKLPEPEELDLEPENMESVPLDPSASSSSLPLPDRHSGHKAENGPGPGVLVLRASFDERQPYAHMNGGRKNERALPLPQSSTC

SMILES	IC50
CC(=O)Nc1ccc(C#N)cc1N1CCC(n2c(=N)n(Cc3cccc4[nH]ccc34)c3ccc(F)cc32)CC1 [Example 56.11, N-(4-Cyano-2-{4-[6-fluoro-2-imino-3-(1H-indol-4-ylmethyl)-2,3-dihydro-benzoimidazol-1-yl]-piperidin-1-yl}-phenyl)-acetamide]	16 nM
CC(=O)Nc1ccc(Cl)cc1N1CCC(n2c(=N)n(Cc3cccc4[nH]ccc34)c3ccccc32)CC1 [Example 57]	15 nM
CC(=O)Nc1ccc(Cl)cc1N1CCC(n2c(=N)n(Cc3cccc4[nH]ccc34)c3ccc(F)cc32)CC1 [Example 61, N-(4-Chloro-2-{4-[6-fluoro-2-imino-3-(1H-indol-4-ylmethyl)-2,3-dihydro-benzoimidazol-1-yl]-piperidin-1-yl}-phenyl)-acetamide]	8 nM
CC(=O)Nc1ccc(C)cc1N1CCC(n2c(=N)n(Cc3cccc4[nH]ccc34)c3ccc(F)cc32)CC1 [Example 56.15, N-(2-{4-[6-Fluoro-2-imino-3-(1H-indol-4-ylmethyl)-2,3-dihydro-benzoimidazol-1-yl]-piperidin-1-yl}-4-methyl-phenyl)-acetamide]	41 nM
CC(=O)Nc1ccccc1N1CCC(n2c(=N)n(Cc3ccccc3Cl)c3ccc(F)cc32)CC1 [Example 56.18, N-(2-{4-[3-(2-Chloro-benzyl)-6-fluoro-2-imino-2,3-dihydro-benzoimidazol-1-yl]-piperidin-1-yl}-phenyl)-acetamide]	119 nM
CC(=O)Nc1ccc(C)nc1N1CC[C@H](n2c(=N)n(Cc3cccc4[nH]ccc34)c3ccccc32)[C@@H](O)C1 (racemic) [Example 67.4, Rac-trans-N-{3-Hydroxy-4-[2-imino-3-(1H-indol-4-ylmethyl)-2,3-dihydro-benzoimidazol-1-yl]-6′-methyl-3,4,5,6-tetrahydro-2H-[1,2′]bipyridinyl-3′-yl}-acetamide]	1010 nM
CC(=O)Nc1ccc(C(F)(F)F)cc1N1CCC(n2c(=N)n(Cc3cccc4[nH]nnc34)c3ccc(F)cc32)CC1 [Example 56.14, N-(2-{4-[3-(1H-Benzotriazol-4-ylmethyl)-6-fluoro-2-imino-2,3-dihydro-benzoimidazol-1-yl]-piperidin-1-yl}-4-trifluoromethyl-phenyl)-acetamide]	23 nM
CC(=O)Nc1ccc(C)nc1N1CC[C@H](n2c(=N)n(Cc3ccccc3Cl)c3ccc(F)cc32)[C@@H](O)C1 (racemic) [Example 67.2, Rac-trans-N-{4-[3-(2-Chloro-benzyl)-6-fluoro-2-imino-2,3-dihydro-benzoimidazol-1-yl]-3-hydroxy-6′-methyl-3,4,5,6-tetrahydro-2H-[1,2′]bipyridinyl-3′-yl}-acetamide]	62 nM
CC(=O)Nc1ccc(C(F)(F)F)cc1N1CCC(n2c(=N)n(Cc3ccccc3Cl)c3ccc(F)cc32)CC1 [Example 56.17, N-(2-{4-[3-(2-Chloro-benzyl)-6-fluoro-2-imino-2,3-dihydro-benzoimidazol-1-yl]-piperidin-1-yl}-4-trifluoromethyl-phenyl)-acetamide]	38 nM
CC(=O)Nc1ccccc1N1CCC(n2c(=N)n(Cc3cccc4[nH]ccc34)c3ccc(F)cc32)CC1 [Example 56.19, N-(2-{4-[6-Fluoro-2-imino-3-(1H-indol-4-ylmethyl)-2,3-dihydro-benzoimidazol-1-yl]-piperidin-1-yl}-phenyl)-acetamide]	382 nM
CC(=O)Nc1ccc(Cl)cc1N1CCC(n2c(=N)n(Cc3ccccc3Cl)c3ccc(F)cc32)CC1 [Example 62, N-(4-Chloro-2-{4-[3-(2-chloro-benzyl)-6-fluoro-2-imino-2,3-dihydro-benzoimidazol-1-yl]-piperidin-1-yl}-phenyl)-acetamide]	36 nM
CC(=O)Nc1ccc(Cl)cc1N1CC[C@H](n2c(=N)n(Cc3cccc4[nH]ccc34)c3ccccc32)[C@@H](O)C1 (racemic) [Example 67.5, Rac-trans-N-(4-Chloro-2-{3-hydroxy-4-[2-imino-3-(1H-indol-4-ylmethyl)-2,3-dihydro-benzoimidazol-1-yl]-piperidin-1-yl}-phenyl)-acetamide]	30 nM
